Laboratory results as given in patent US5493007A, “Platelet aggregation inhibitors having high specificity for GPIIBIIIA” (Genentech, Inc., priority 1994, dated 1996).
*1 amine or outer side, *2 acyl side, *3 side chain or, on linkers, in order; H or OH if unused. Where a SMILES comes first, the peptide text is derived from it. Bridges are numbered along the chain shown (N, C = ends). [ ]: non-standard residue; d: D form. The star is where a group is joined. Ethylenediamine = C(CN[*:2])N[*:1]; Aad = N[C@@H](CCCC(=O)O)C(=O)O; dOrn = NCCC[C@@H](N)C(=O)O; NH(CH2)5NH2 = NCCCCCN*; NH(CH2)3NH2 = NCCCN*

Columns and labels:
Fibronectin Receptor = Fibronectin Receptor (Homo sapiens, UniProt P05556+P08648); test: Human Fibronectin-Fibronectin Receptor ELISA Assay; assay type: binding; parameters: octylglucoside (OG) extracted human placenta; from tissue; host or cells: human placenta; settings: human placenta fibronectin receptor, fibronectin-coated plates; read-out: ELISA IC50 Fibronectin FnR
Description: Fibronectin receptor is purified according to the procedures of Pytela et al., (Methods Enzymol. 144:475 […]). Briefly, fibronectin receptor is purified employing an Arg-Gly-Asp affinity chromatography from (100 mM) octylglucoside (OG) extracted human placenta. The OG extract is filtered over Sepharose 6B GRGDSPK column. The column is washed three times with three column volumes of Tris-buffered saline (TBS) TBS, 1 mM CaCl2, and 25 mM OG. The receptor is eluted with TBS, 20 mM EDTA, and 25 mM Octyl thioglucoside, and is stored in 1 mM CaCl2, 1 mM MgCl2, at -80° C.
Microtiter plates are coated with 110 μl human fibronectin (at 2 μg/ml) in TBS. Plates are washed three times with TBS containing 0.05% Tween 20. Test inhibitors are then added after washing in 10 microliter aliquots. The fibronectin receptor is added in 2-fold serial dilutions with TBS containing 20 mM octyl glucoside and 2 mM MnCl2. Plates are incubated three hours at room temperature, and washed with 200 μl TBS-Tween 20 buffer. 100 μl of affinity-purffied rabbit anti-human fibronectin receptor antibody is added to the wells and the plates are incubated two hours, washed twice with TBS-Tween and once with distilled water. Affinity-purified goat anti-rabbit IgG conjugated to horseradish peroxidase (100 μl) is added to each well followed by incubation for 60 minutes at room temperature. Plates are again washed twice with TBS-Tween and distilled water. 100 μl of substrate mixture (10 mg o-phenylenediamine in 25 ml 0.1M citrate-phosphate buffer, pH 5.0 6 μ30% H2 O2) is added to the plates and allowed to develop. The development process is stopped by adding 50 μl of 4N H2 SO4 to each well and read at […].

GP IIb IIIa = GP IIb IIIa (Homo sapiens, UniProt P05106+P08514); test: Fibrinogen-GP IIb IIIa Receptor ELISA Binding Assay; parameters: from tissue; host or cells: outdated human platelets; settings: purified human platelet GP IIb IIIa, fibrinogen-coated plates; read-out: ELISA IC50 Fibrinogen GPIIb IIIa
Description: The method used is essentially that described in Nachman and Leung (J. Clin. Invest., 69:263-269 [1982]). The GP IIb IIIa is essentially purified as described in Fitzgerald et al., (Anal. Biochem. 151:169-177 [1985]).
Outdated human platelets are washed 3 times with 10 mM tris-HCl, 150 mM NaCl (TBS), 1 mM EDTA, pH 7.5, and centrifuged at 2000×g to pellet cells. Cells are lysed in 5 pellet volumes of TBS, 1% Triton X-100, 1 mM Ca2 Cl2, and followed by centrifugation at 30,000×g. The supernatant fraction is collected and the supernatant is loaded onto a concanavalin-A column, previously equilibrated in TBS, 1 mM Ca2 Cl2, 0.1% Triton, 0.05% NaN3 and eluted with 0.2M α-methylmannoside. Fractions are pooled and loaded onto a heparin-agarose column. The flowthrough is collected and concentration on an Amicon YM 30 filter to a volume of approximately 5-10 mi. The concentrate is then applied to an S-300 column (500 ml) and 6 ml fractions are collected. The GP IIb IlIa containing fractions are collected, pooled, and stored at -80° C.
The purification of fibrinogen is conducted essentially as described by Lipinska et al., (J. Lab. Clin. Med. 507, [1974]). Briefly, a 0.3% w/v solution of human fibrinogen (Kabi #5302) is dissolved in 150 mM NaCl. Saturated (NH4)2 SO4 is added dropwise with stirring to the fibrinogen solution to obtain about 16% saturation. The precipitate is spun down in appropriate size bottles at 2000×g. The supernatant is decanted and the precipitate resuspended in 150 mM NaCl (approximately 50% of the original volume). NH4 SO4 is again added dropwise to obtain 16% saturation. The suspension is spun down and the precipitate is resuspended in Tris-saline in a minimal volume (approximately 5% of the original volume). Any remaining insoluble material is spun down at 2000 rpm in a Sorval type centrifuge and the fibrinogen supernatant is decanted and dialyzed overnight at 4° C. against Tris-saline. Characterization of the fibrinogen is by the Bradford protein assay, SDS-PAGE, and/or Western blotting using well known standard procedures.
Briefly, 96 well plates are coated (Type Nunc 1 Maxisorp™) with 10 μg/ml purified fibrinogen (100 μl/well), and allowed to stand overnight at 4° C. The plates are washed three times with PBS Tween (0.137M NaCl, 0.003M KCl, 0.008M Na2 HPO4, 0.001M KH2 PO4, pH 7.4 at room temperature, 0.05% Tween-20) and blocked for 1 to 2 hours at room temperature with 200 μl/well TNCNT (which is 0.5% BSA, 20mM Tris, pH 7.5 at room temperature, 120 mM NaCl, 0.2% NAN3, 2mM CaCl2, 0.05% Tween 20, 0.5% BSA [Calbiochem RIA grade or better]) on a plate shaker. The plates are again washed three times with PBS/Tween and then 50 μl of sample in TNCNT is added. The mixture is incubated for 15 minutes at room temperature on a plate shaker. The stock solution of purified GP IIb IIIa receptor from human platelets, (0.4-1.0 mg/ml GP IIb IIIa in 0.1% Triton X-100, 1 mM CaCl2, 20 mM Tris, 150 mM NaCl, 0.05% NaN3 in 0.3M N-acetyl glucosamine pH 7.5, stored at -70° C.), is reconstituted to about 40 μg/ml in TNCNT. Fifty μl of this diluted GP IIb IIIa is then added to each well and incubated on a plate shaker at room temperature. After one hour, the plates are washed four times with PBS/Tween and 100 μl of a polyclonal or monoclonal antibody specific for GP IIIa such as AP3 (1 μg/ml) (See e.g. Newman et al., Blood, 65:227-232 [1985]) in ELISA buffer (PBS, 0.5% BSA, 0.05% Tween 20, 0.01% Thimerasol) is added. After a one hour incubation at room temperature on a plate shaker, the samples are washed 4 times with PBS/Tween. One hundred μl of GAM-HRP (horse radish peroxidase conjugate of goat anti-mouse IgG [Pel-Freeze Cat. 715305-1] dissolved in ELISA buffer) previously diluted to 1:10,000 is then added and the samples are incubated 1 hour at room temperature on a plate shaker. […]

Chain of Fibronectin Receptor (P08648 42-894 limits assumed): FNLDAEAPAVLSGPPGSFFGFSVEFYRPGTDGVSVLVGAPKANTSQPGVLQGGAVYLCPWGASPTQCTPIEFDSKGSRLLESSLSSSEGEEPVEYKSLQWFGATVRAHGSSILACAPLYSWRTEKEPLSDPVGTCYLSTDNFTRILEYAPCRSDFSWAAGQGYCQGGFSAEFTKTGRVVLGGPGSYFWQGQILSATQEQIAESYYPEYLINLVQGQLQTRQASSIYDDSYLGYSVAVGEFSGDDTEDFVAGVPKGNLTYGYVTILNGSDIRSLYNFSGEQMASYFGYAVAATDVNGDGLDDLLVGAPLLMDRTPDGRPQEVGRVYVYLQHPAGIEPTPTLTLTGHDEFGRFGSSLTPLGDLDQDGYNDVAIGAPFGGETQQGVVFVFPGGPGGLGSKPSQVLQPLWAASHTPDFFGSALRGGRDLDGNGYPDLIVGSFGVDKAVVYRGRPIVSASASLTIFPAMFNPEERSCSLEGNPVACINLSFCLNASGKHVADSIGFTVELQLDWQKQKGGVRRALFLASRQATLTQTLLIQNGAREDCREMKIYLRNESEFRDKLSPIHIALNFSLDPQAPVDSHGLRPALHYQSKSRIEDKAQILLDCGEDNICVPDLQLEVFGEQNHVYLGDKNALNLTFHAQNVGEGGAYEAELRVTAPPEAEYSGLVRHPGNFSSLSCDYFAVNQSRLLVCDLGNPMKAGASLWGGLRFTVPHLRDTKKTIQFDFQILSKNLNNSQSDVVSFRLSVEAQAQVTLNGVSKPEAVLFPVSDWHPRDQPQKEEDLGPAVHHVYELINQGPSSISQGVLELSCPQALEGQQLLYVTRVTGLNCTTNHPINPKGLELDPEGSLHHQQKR
Chain of Fibronectin Receptor (P08648 895-1049 partner limits assumed): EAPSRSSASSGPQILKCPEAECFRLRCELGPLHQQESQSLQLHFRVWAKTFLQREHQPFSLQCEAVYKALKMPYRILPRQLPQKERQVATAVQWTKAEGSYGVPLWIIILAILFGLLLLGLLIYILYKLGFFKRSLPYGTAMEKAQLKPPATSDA
Chain of Fibronectin Receptor (P05556 21-798): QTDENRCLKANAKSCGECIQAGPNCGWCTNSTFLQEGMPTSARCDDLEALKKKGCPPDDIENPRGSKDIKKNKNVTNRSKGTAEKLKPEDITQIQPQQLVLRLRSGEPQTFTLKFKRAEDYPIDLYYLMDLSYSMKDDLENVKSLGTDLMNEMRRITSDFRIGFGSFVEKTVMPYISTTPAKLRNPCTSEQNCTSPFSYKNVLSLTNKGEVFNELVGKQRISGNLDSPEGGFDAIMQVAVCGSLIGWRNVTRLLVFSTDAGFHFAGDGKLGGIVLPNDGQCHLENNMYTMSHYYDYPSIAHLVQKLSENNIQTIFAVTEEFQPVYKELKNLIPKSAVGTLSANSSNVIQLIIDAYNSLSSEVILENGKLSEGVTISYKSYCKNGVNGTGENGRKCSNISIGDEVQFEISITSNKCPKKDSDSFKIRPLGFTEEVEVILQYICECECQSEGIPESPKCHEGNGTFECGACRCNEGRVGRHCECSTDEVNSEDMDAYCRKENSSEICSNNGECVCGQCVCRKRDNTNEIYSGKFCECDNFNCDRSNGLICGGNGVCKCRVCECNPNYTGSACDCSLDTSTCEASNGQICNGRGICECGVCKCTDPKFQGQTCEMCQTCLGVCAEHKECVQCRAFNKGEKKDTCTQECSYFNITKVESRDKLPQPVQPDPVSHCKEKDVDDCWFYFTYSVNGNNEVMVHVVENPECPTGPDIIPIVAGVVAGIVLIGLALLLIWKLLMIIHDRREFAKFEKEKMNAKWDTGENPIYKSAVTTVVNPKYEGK
Chain of GP IIb IIIa (P08514 32-887 limits assumed): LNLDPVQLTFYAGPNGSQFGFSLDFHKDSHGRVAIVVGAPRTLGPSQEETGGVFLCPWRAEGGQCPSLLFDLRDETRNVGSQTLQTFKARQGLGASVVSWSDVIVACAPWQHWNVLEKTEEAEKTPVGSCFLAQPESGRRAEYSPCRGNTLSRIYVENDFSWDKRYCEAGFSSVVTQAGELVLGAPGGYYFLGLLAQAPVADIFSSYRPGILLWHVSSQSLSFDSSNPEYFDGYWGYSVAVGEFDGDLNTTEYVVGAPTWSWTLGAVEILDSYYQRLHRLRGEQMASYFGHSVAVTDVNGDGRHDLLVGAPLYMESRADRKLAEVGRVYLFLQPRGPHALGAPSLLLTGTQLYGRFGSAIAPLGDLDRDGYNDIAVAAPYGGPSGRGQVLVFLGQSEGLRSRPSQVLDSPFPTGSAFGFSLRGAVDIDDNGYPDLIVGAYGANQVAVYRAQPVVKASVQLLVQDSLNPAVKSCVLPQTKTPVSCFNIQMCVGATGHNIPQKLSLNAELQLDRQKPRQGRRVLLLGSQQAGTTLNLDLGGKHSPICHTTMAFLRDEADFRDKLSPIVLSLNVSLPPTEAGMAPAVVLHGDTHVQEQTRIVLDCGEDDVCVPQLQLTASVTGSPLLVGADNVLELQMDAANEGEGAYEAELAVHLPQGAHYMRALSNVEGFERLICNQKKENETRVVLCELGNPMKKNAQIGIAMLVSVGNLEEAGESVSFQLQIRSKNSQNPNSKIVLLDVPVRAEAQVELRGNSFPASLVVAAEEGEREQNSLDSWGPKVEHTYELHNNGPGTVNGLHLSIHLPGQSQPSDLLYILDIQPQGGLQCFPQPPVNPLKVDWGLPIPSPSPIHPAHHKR
Chain of GP IIb IIIa (P08514 891-1039 partner limits assumed): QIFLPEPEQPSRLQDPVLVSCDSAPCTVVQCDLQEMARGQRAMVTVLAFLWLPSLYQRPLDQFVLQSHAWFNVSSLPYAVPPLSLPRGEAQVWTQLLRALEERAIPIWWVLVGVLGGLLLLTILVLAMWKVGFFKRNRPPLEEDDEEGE
Chain of GP IIb IIIa (P05106 27-788): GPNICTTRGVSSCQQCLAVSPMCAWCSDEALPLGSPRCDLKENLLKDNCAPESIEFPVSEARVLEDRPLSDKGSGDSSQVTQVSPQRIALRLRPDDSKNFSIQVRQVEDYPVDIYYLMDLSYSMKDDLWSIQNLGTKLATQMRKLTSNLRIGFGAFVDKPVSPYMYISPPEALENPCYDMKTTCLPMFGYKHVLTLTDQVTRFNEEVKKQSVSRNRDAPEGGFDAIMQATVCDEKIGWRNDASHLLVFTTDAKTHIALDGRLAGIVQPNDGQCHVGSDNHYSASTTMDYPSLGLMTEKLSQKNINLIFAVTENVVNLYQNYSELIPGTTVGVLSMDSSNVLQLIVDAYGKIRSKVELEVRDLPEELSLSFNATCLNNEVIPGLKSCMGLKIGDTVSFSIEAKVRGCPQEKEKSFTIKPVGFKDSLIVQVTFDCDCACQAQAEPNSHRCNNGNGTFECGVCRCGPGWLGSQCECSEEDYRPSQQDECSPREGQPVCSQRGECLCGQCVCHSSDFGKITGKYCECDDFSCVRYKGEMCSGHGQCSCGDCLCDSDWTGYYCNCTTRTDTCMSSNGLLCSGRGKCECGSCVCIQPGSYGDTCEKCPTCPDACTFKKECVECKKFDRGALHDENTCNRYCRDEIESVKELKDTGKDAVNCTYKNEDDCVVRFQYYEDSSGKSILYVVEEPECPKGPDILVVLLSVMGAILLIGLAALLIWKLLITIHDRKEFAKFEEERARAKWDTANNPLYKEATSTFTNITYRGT

SMILES | IC50 (Fibronectin Receptor) [nM] | IC50 (GP IIb IIIa) [nM]
N=C(N)NCCC[C@@H]1NC(=O)[C@@H](Cc2ccc(O)cc2)NC(=O)CSC[C@@H](C(=O)N[C@@H](CCCCN)C(N)=O)NC(=O)[C@H](CC(=O)O)NC(=O)CNC1=O [7/3, cyclo-S-acetyl-dTyr--Arg--Gly--Asp--Cys--Lys--NH2] ({CH2CO}-[dY]RGDCK-NH2; thioether N-5) | 201 | 17
N=C(N)NCCC[C@@H]1NC(=O)[C@@H](Cc2ccc(O)cc2)NC(=O)CSC[C@@H](C(=O)NCCCCCN)NC(=O)[C@H](CC(=O)O)NC(=O)CNC1=O [8/13, cyclo-S-acetyl-dTyr--Arg--Gly--Asp--Cys--NH--X (X = pentylamine)] ({CH2CO}-[dY]RGDC-{NH(CH2)5NH2}; thioether N-5) | 473 | 9
N=C(N)NCCC[C@@H]1NC(=O)[C@@H](Cc2ccc(O)cc2)NC(=O)CSC[C@@H](C(=O)NCCCN)NC(=O)[C@H](CC(=O)O)NC(=O)CNC1=O [8/22, cyclo-S-acetyl-dTyr--Arg--Gly--Asp--Cys--NH--X (X = propyl amine)] ({CH2CO}-[dY]RGDC-{NH(CH2)3NH2}; thioether N-5) | 176 | 15
N=C(N)NCCC[C@@H]1NC(=O)[C@@H](Cc2ccc(O)cc2)NC(=O)C(CCCCN)SC[C@@H](C(=O)O)NC(=O)[C@H](CC(=O)O)NC(=O)CNC1=O (single isomer, unassigned) [9/10, cyclo-S-2-L-(6-aminocaproyl)-Lys--dTyr--Arg--Gly--Asp--Cys--OH] | 2 | 5.3
N=C(N)NCCC[C@@H]1NC(=O)[C@@H](Cc2ccc(O)cc2)NC(=O)CSC[C@@H](C(=O)N[C@H](CCCNC(=N)N)C(N)=O)NC(=O)[C@H](CC(=O)O)NC(=O)CNC1=O [7/2, cyclo-S-acetyl-dTyr--Arg--Gly--Asp--Cys--dArg--NH2] ({CH2CO}-[dY]RGDC[dR]-NH2; thioether N-5) | 42 | 13.5
N=C(N)NCCC[C@@H]1NC(=O)[C@@H](Cc2ccc(O)cc2)NC(=O)CCC[C@@H](C(=O)N[C@@H](CCCCN)C(N)=O)NC(=O)[C@H](CC(=O)O)NC(=O)CNC1=O [10/20, cyclo(1-5)dTyr--Arg--Gly--Asp--L-α-aminoadipic acid-Lys--NH2] ([dY]RGD[Aad]K-NH2; lactam N-5) | 2310 | 12.4
N=C(N)NCCC[C@@H]1NC(=O)[C@@H](Cc2ccc(O)cc2)NC(=O)CSC[C@@H](C(=O)N[C@H](CCCN)C(N)=O)NC(=O)[C@H](CC(=O)O)NC(=O)CNC1=O [7/6, cyclo-S-acetyl-dTyr--Arg--Gly--Asp--Cys--dOrn--NH2] ({CH2CO}-[dY]RGDC[dOrn]-NH2; thioether N-5) | 161 | 10.5
N=C(N)NCCC[C@@H]1NC(=O)[C@@H](Cc2ccc(O)cc2)NC(=O)CSC[C@@H](C(=O)NCCN)NC(=O)[C@H](CC(=O)O)NC(=O)CNC1=O [8/23, cyclo-S-acetyl-dTyr--Arg--Gly--Asp--Cys--NH--X (X = ethyl amine)] ({CH2CO}-[dY]RGDC-Ethylenediamine; thioether N-5) | 61 | 14
N=C(N)NCCC[C@H](NC(=O)[C@@H]1CCCC(=O)N[C@H](Cc2ccc(O)cc2)C(=O)N[C@@H](CCCNC(=N)N)C(=O)NCC(=O)N[C@@H](CC(=O)O)C(=O)N1)C(N)=O [10/19, cyclo(1-5)dTyr--Arg--Gly--Asp--L-α-aminoadipic acid-Arg--NH2] ([dY]RGD[Aad]R-NH2; lactam N-5) | 745 | 8.9
